Laboratory results: US10537535B2, “Histone deacetylase inhibitors” (The Regents of the University of California, priority 2015, dated 2020)

Columns and labels:
[1] = test system: Gr63a; experiment: Whole mount RNA in situ of adult Drosophila antenna Gr63a; type: in vivo; settings: 5 days; odor 1 1% on filter paper, sodium butyrate 10 mM fed; vs untreated or mock
Description: For five days, Drosophila were exposed to 1% diacetyl (odor 1) on filter paper; fed known HDAC inhibitor sodium butyrate (Na-but; 10 mM); or fed known HDAC inhibitor valproic acid (10 mM).

[2] = test system: pGMR-HTTQ120 flies; settings: orally-administered, previous studies; cited from earlier work
[3] = test system: gene expression in the antenna of Drosophila melanogaster; experiment: RNA-seq transcriptome analysis of Drosophila antennae after exposure or feeding; type: in vivo; settings: 5 days; diacetyl 1% headspace, SB/VA 10 mM in food; vs control
From the text: In order to examine the physiological effects of long-term exposure to an odorant, flies were maintained in vials with circulating volatiles from headspace of a low concentration (1% in paraffin oil) of the odorant diacetyl, which acts on a number of different receptor pathways in Drosophila. In a similar manner to previous odor-exposure studies, flies were exposed to diacetyl for 5 days and performed an RNA-seq analysis of the antennae, which are known odor-detecting organs. The transcriptome was compared with a control group of age-matched flies that were exposed to the headspace of the solvent paraffin oil (PO, FIG. 3A).
Flies were exposed to diacetyl (2,3-Butanedione, B85307, Sigma-Aldrich, St. Louis, Mo.) by placing them in vials in a cylindrical closed container (112 mm diameter×151 mm height) along with an odor-containing glass vial. The odorant was dissolved in 10 mL paraffin oil at 1% dilution. For a given exposure protocol, two groups of flies were prepared: those exposed to 1% diacetyl headspace and those exposed to paraffin oil headspace alone (control flies). Adult male flies aged 1 d were transferred to fly vials containing fresh medium, and put into the container with the odor vial. At the end of the fifth day of exposure, flies were collected, and their antennae were dissected for RNA extraction. All treatments and experiments were performed at room temperature. For the recovery experiment, flies were transferred again to the container containing a glass vial of paraffin oil after 5 days of diacetyl exposure. At the end of the fifth day of recovery, flies were collected, and their antennae were dissected for RNA extraction.
Sodium butyrate (B5887, Sigma-Aldrich) or valproic acid (P4543, Sigma-Aldrich) were dissolved in normal fly food medium at the final concentration of 10 mM. Three groups of flies were prepared: those treated with one of the HDAC inhibitors and those without HDAC inhibitor treatment (control flies). Adult flies aged 1 d were transferred to fly vials containing medium with or without a HDAC inhibitor. At the end of the fifth day of treatment, flies were collected, and their antennae were dissected for RNA extraction. All treatments and experiments were performed at room temperature.
The second and third antennal segments from 40-60 male flies after treatment were carefully hand-dissected from the head, collected in 1.5 ml microfuge tubes kept cold in liquid nitrogen. Antennae were mechanically crushed with disposable RNAse-free plastic pestles, and total RNA was isolated using a Trizol-based protocol. cDNA libraries were prepared from total RNA (300-1000 ng/sample) using the Illumina TruSeq RNA Library Preparation Kit (Illumina Catalog #RS-122-2001). Samples were submitted to the UCR IIGB sequencing core for high-throughput sequencing using the Illumina HiSeq2500 platform. Raw reads were aligned to the Drosophila melanogaster reference genome (dmel-all-chromosome-r5.48.fasta) with Tophat2, and a count table of reads overlapping with exonic regions of genes was generated by the UCR bioinformatics core. The numbers of biological replicates are: 2, day 5 paraffin oil; 1, day 5 diacetyl; 2, day 5 mock; 2, day 5 sodium butyrate; 2, day 5 valproic acid; 2, day 10 paraffin oil recovery; 2, day 10 diacetyl recovery.
The read count table for all the genes were then imported into R and a statistical analysis of differential gene expression using the DESeq package (1.22.0) was performed. […] The gene list analysis was performed using the GO Term Mapper (http://go.princeton.edu/) with Generic GO slim datasets, and the Statistical overrepresentation test was performed using the PANTHER classification (http://www.pantherdb.org/) system with GO complete datasets.
This example investigates the overlap among genes modulated by diacetyl as compared to sodium butyrate and valproic acid, which are known HDAC inhibitors. […]

Structure (SMILES) | Gr63a expression in antenna (RNA in situ) [1] | photoreceptor degeneration in Huntington's model Drosophila [2] | number of differentially-expressed genes in antennal transcriptome [3] [genes] | number of genes down-regulated >2-fold [3] [genes] | number of genes up-regulated >2-fold [3] [genes]
CCCC(=O)[O-].[Na+] [sodium butyrate, Sodium butyrate, reference compound] | over-expression | significantly reduce photoreceptor degeneration | 558 | 366 | 192
CCCC(CCC)C(=O)O [valproic acid, reference compound] |  |  | 940 | 772 | 168
O=C(CCCCCCC(=O)Nc1ccccc1)NO [SAHA, suberoylanilide hydroxamic acid] |  | significantly reduce photoreceptor degeneration |  |  | 
